Test results from patent US9624491B2, “Methods and compositions for the detection and treatment of cancer involving miRNAs and miRNA inhibitors and targets” (Memorial Sloan Kettering Cancer Center, priority 2010, dated 2017).

Tests used:
FL5-12 lymphocytes = test: IL3 depletion competition assay for cytokine-independent survival of FL5-12 lymphocytes; assay type: cell-based, murine
Experimental: An established in vitro assay of hematopoietic transformation (Plas, Talapatra, Edinger, Rathmell, & Thompson, 2001) was used to identify the key oncogenic activities within the 17˜92 cluster and its paralogues. All miRNAs representing families of unique seed sequences, specifically miR-17, miR-18a, miR-19b-1 (miR-19), miR-20a, miR-106a, miR-106b and miR-25 were tested (FIG. 1a). The assay is based on the IL3 dependence of FL5-12 lymphocytes, which undergo apoptosis when removed from IL3. In competition experiments, FL5-12 cells were partially transduced with GFP plus individual miRNAs or empty vector and these mixed populations were monitored by fluorescence-activated cell sorting (FACS) for changes in their relative proportions (FIG. 1b).
(§1) FL5-12 murine lymphocytes, IL3 depletion studies and viral transductions were as described (Mavrakis, et al., 2008) (Plas, Talapatra, Edinger, Rathmell, & Thompson, 2001). Cell cycle and cell death assays based on uptake of DNA staining dye (LDS751) using Cell cycle and Viacount assays from Guava Technologies were performed as reported (Mavrakis, et al., 2008). The retroviral vectors are based on murine stem cell virus (MSCV) and include the miRNA expression vectors encoding miRs 17, 18a, 19b-1 (miR-19), 106a, 106b, 25 (He, et al., 2005), the vectors encoding Notch-ICN (a gift from W. Pear) (Pear, et al., 1996) and Bcl2 (Wendel, et al., 2004), the individual shRNA vectors (FIG. 17) and the library vector (MRP) (FIGS. 18a and b). miRNA inhibitor oligonucleotides (antagomirs) MZIP19a-PA-1, MZIP19b-PA-1, and scrambled control (MZIP000-PA-1) were from System Biosciences.
The primary screen is based on c-MYC-induced apoptosis in MEFs (Evan, et al., 1992). MEFs were transduced with c-MYC and the miRNA library and cultured in puromycin to select for homogeneous c-MYC expression; apoptosis was triggered by diluting serum from 10% to 0.1%. Surviving cells remained adherent and were collected for DNA isolation, PCR amplification of the integrated miRNA library constructs, sub-cloning into pGEM-T vector, bacterial transformation, and sequence identification of ˜100 colonies. A secondary library was constructed by sub-cloning all miRNAs from the primary screen into an MSCV construct. The secondary screen is based on the IL-3 dependence of FL5-12 lymphocytes in vitro (Mavrakis, et al., 2010), (Plas, Talapatra, Edinger, Rathmell, & Thompson, 2001). FL5-12 cells were partially transduced with the pooled, GFP-tagged library and selected by IL-3 depletion. miRNAs were identified as above. Individual miRNAs were subsequently validated in the same FL5-12 assay and in vivo.

FL5-12 cells = test: Cell cycle and cell death (viability) assays in FL5-12 cells; assay type: cell-based, murine
Experimental: as §1

NOTCH1-induced T-ALL = test: Mouse model of Notch-ICN (NOTCH1)-induced T-ALL, adoptive transfer of transduced HPCs; assay type: in vivo; conditions: HPCs expressing NOTCH1-ICN plus miRNA or shRNA transplanted into irradiated recipients
Experimental: Can miR-19 drive the development of lymphatic malignancies in vivo? Based on the miR-19 expression and translocation data, miR-19 was assessed in a mouse model of T-ALL (Pear, et al., 1996). Briefly, most cases of T-ALL carry mutations in the Notch1 gene, and, like the […] translocation, these generate the constitutively active intracellular domain of NOTCH1 (Notch-ICN) (Weng, et al., 2004). To test miR-19's ability to promote Notch-ICN-induced T-ALL in vivo, HPCs were adoptively transferred into irradiated recipients (FIG. 3d). […] At the same time, 80% of the mice receiving HPCs expressing only Notch-ICN remained disease free (p=0.0003) (FIG. 3e).
The mouse models of Notch1-induced T-ALL and the EμMyc lymphoma based on adoptive transfer of retrovirally transduced HPCs have been reported (Pear, et al., 1996), (Wendel, et al., 2004). Data were analyzed in Kaplan-Meier format using the log-rank (Mantel-Cox) test for statistical significance. The p53 loss of heterozygosity polymerase chain reaction (LOH PCR) and immunophenotyping by surface marker analysis were as described (Wendel, et al., 2004).
A murine model of NOTCH1-induced T-ALL was used to directly test the oncogenic potential of the most promising miRNAs in vivo. Briefly, HPCs were transduced with NOTCH1 together with either empty vector or an miRNA and transplanted into irradiated, syngeneic recipients. Animals were monitored for leukemia onset by regular blood counts (FIG. 22a). […] Typically, animals receiving HPCs transduced with these miRNAs develop an acute leukemia by 75 days, while >80% of vector controls or animals receiving miR-30 (n=5, p=0.15) remain disease free at this time (FIG. 22b). Based on the in vitro screen and prediction, additional miRNAs were tested. […] Thus, miR-19b, miR-20a, miR-26a, miR-223 and also the less abundant miR-27a and miR-148/152 behave as oncogenes in a murine T-ALL model.
The mouse T-ALL model has been reported (Pear, et al., 1996), (Wendel, et al., 2004). Data were analyzed in Kaplan-Meier format using the log-rank (Mantel-Cox) test for statistical significance. […]

FL5-12/Bcl2 cells = test: Complementation studies in FL5-12 cells stably expressing Bcl2; assay type: cell-based, murine; conditions: shifted from complete to IL3 deficient media
Experimental: The relative contribution of the novel miR-19 targets was assessed. The pro-apoptotic BIM protein opposes BCL2 and is an important regulator of lymphocyte survival (Bouillet, et al., 1999). To assess whether miR-19 has Bim-independent effects, complementation studies were conducted with FL5-12 cells engineered to stably express Bcl2 (FL5-12/Bcl2 cells). […] Similarly, expression of miR-19 was associated with continued proliferation in the presence of metformin-activated AMP kinase or expression of Pten or Pp2r5e (FIG. 16).

Substance: miR-19: miRNA of the 17˜92 cluster, UGUGCAAAUCCAUGCAAAACUGA (SEQ ID NO: 2); seed family in Table 3 (expressed or natural sequence; listed as Homo sapiens)
- enrichment of miRNA/GFP-expressing FL5-12 cells over parental cells upon IL3 depletion (FL5-12 lymphocytes; competition experiment, FACS): rapidly enriched over parental cells upon IL3 depletion
- IL-3 independence of FL5-12 cells (FL5-12 lymphocytes; retest of individual miRNAs from secondary library screen): confer IL-3 independence on FL5-12 cells
- Viability (FL5-12 cells; FL5-12 cells withdrawn from IL3 for 48 h): 82%±1.5%
- S-phase fraction (FL5-12 cells; synchronized FL5-12 cells 24 h after release): 24.5%±0.5
- leukemia onset / leukemia-free survival (NOTCH1-induced T-ALL): rapidly succumbed to T-ALL
- leukemia onset / leukemia-free survival (NOTCH1-induced T-ALL; listed as miR-19b): disease acceleration
- enrichment of GFP-expressing FL5-12/Bcl2 cells (FL5-12/Bcl2 cells): continued enrichment in the presence of Bcl2
